# Test results as given in patent publication EP0597303A2, “Cephalosporin derivatives” (priority 1992, dated 1994).
# Counter-ions that a name gives are not always drawn.
# Legend:
# Test in all cases: MIC, Agar (Mueller Hinton) Dilution Method
# Assay type in all cases: cell-based
# [1] = tested on: A. calcoaceticus PCI-3; details: Acinetobacter calcoaceticus, PCI3, Gram Negative
# Description: (§1) The in vitro activity of the compounds of formula I of the present invention as measured by the Minimum Inhibitory Concentration (MIC) in micrograms/ml utilizing the Agar (Mueller Hinton) Dilution Method against a variety of Gram-positive and Gram-negative organisms, is set forth in Table 1.
# [2] = tested on: E. coli 1527E; details: Escherichia coli, Gram Negative
# Description: as §1
# [3] = tested on: E. coli 1894 E; details: Escherichia coli; E. coli 1894 E; Gram Negative; read-out: MIC
# Description: as §1
# [4] = tested on: E. coli 94; details: Escherichia coli, Gram Negative
# Description: as §1
# [5] = tested on: E. coli B; details: Escherichia coli, Gram Negative
# Description: as §1
# [6] = tested on: E. coli DC-0; details: Escherichia coli, DC0, Gram Negative
# Description: as §1
# [7] = tested on: E. coli Leo HA2M4; details: Escherichia coli, LEOHA2M4
# Description: as §1
# [8] = tested on: Ent. faecalis ATCC 29212; details: Enterococcus faecalis, ATCC29212, Gram Positive and Others
# Description: as §1
# [9] = tested on: Ent. hirae ATCC 8043; details: Enterococcus hirae, ATCC8043, Gram Positive and Others
# Description: as §1
# [10] = tested on: Enter. cloacae 4192-2; details: Enterobacter cloacae, 41922; Enter. cloacae 4192-2; Gram Negative; read-out: MIC
# Description: as §1
# [11] = tested on: K. pneumoniae 369; details: Klebsiella pneumoniae; K. pneumoniae 369; Gram Negative; read-out: MIC
# Description: as §1
# [12] = tested on: Klebsiella pneumoniae A; details: Gram Negative
# Description: as §1
# [13] = tested on: Prot. mirabilis 2; details: Proteus mirabilis; Prot. mirabilis 2; Gram Negative; read-out: MIC
# Description: as §1
# [14] = tested on: Prot. mirabilis 620A; details: Proteus mirabilis; Prot. mirabilis 620A; Gram Negative; read-out: MIC
# Description: as §1
# [15] = tested on: Prot. mirabilis 90; details: Proteus mirabilis; Prot. mirabilis 90; Gram Negative; read-out: MIC
# Description: as §1
# [16] = tested on: Prot. vulgaris 100; details: Proteus vulgaris, Gram Negative
# Description: as §1
# [17] = tested on: Proteus vulgaris ATCC 6380; details: ATCC6380; Proteus vulgaris ATCC 6380; constitutive ß-lactamase producer; Gram Negative; read-out: MIC
# Description: as §1
# [18] = tested on: Prov. rettgeri ATCC 9250; details: Providencia rettgeri, ATCC9250, Gram Negative
# Description: as §1
# [19] = tested on: Ps. aeruginosa 1973 E; details: Pseudomonas aeruginosa, Gram Negative
# Description: as §1
# [20] = tested on: Ps. aeruginosa 56-1B; details: Pseudomonas aeruginosa, 561B; Ps. aeruginosa 56-1B; Gram Negative; read-out: MIC
# Description: as §1
# [21] = tested on: Ps. aeruginosa 56M; details: Pseudomonas aeruginosa, Gram Negative
# Description: as §1
# [22] = tested on: Ps. aeruginosa 8780; details: Pseudomonas aeruginosa, Gram Negative
# Description: as §1
# [23] = tested on: Ps. aeruginosa K799/61; details: Pseudomonas aeruginosa, K799/61
# Description: as §1
# [24] = tested on: Ps. aeruginosa K799/WT; details: Pseudomonas aeruginosa, Gram Negative
# Description: as §1
# [25] = tested on: Ps. cepacia 1973 B; details: Burkholderia cepacia, Gram Negative
# Description: as §1
# [26] = tested on: Ser. marcescens MA; details: Serratia marcescens, Gram Negative
# Description: as §1
# [27] = tested on: Ser. sp. 101; details: Ser. sp. 101; Gram Negative; read-out: MIC
# Description: as §1
# [28] = tested on: Staph. aureus 1059B; details: Staphylococcus aureus; Staph. aureus 1059B; Gram Positive and Others; read-out: MIC
# Description: as §1
# [29] = tested on: Staph. aureus 3037B; details: Staphylococcus aureus; Staph. aureus 3037B; Gram Positive and Others; read-out: MIC
# Description: as §1
# [30] = tested on: Staph. aureus 67; details: Staphylococcus aureus; Staph. aureus 67; methicillin-resistant; Gram Positive and Others; read-out: MIC
# Description: as §1
# [31] = tested on: Staph. aureus 82; details: Staphylococcus aureus, 82
# Description: as §1
# [32] = tested on: Staph. aureus ATCC 25923; details: Staphylococcus aureus, ATCC25923, Gram Positive and Others
# Description: as §1
# [33] = tested on: Staph. aureus ATCC 29213; details: Staphylococcus aureus, ATCC29213; Staph. aureus ATCC 29213; Gram Positive and Others; read-out: MIC
# Description: as §1
# [34] = tested on: Staph. pyogenes 4; details: Staph. pyogenes 4; Gram Positive and Others; read-out: MIC
# Description: as §1
# [35] = tested on: Staphylococcus aureus Smith; details: Staphylococcus aureus Smith; Gram Positive and Others; read-out: MIC
# Description: as §1
# [36] = tested on: Str. pneumoniae N82-012-MC; details: Streptococcus pneumoniae, N82012MC; Str. pneumoniae N82-012-MC; Gram Positive and Others; read-out: MIC
# Description: as §1
# [37] = tested on: Str. pyogenes 503-782; details: Streptococcus pyogenes, 503782; Str. pyogenes 503-782; Gram Positive and Others; read-out: MIC
# Description: as §1
# [38] = tested on: Streptococcus pneumoniae 6303; details: Streptococcus pneumoniae, 6303
# Description: as §1
smiles,measurement,setting,value
"N#CCC(=O)N[C@@H]1C(=O)N2C(C(=O)O)=C(COC(=O)NC3CCN(c4c(F)cc5c(=O)c(C(=O)O)cn(C6CC6)c5c4F)C3)CS[C@H]12 (some centres unmarked) [Formula Ib, [6R,7R]-3-[[[[[1-(3-Carboxy-1-cyclopropyl-6,8-difluoro-1,4-dihydro-4-oxo-7-quinolinyl-3-[R,S]-pyrrolidinyl]-amino]carbonyl]oxy]methyl]-7-[(cyanoacetyl)amino]-8-oxo-5-thia-1-azabicyclo[4.2.0]oct-2-ene-2-carboxyiic acid monosodium salt]",MIC,[1],0.25 µg/mL
same,MIC,[2],0.0625 µg/mL
same,MIC,[3],0.0625 µg/mL
same,MIC,[4],0.125 µg/mL
same,MIC,[5],0.0625 µg/mL
same,MIC,[6],1 µg/mL
same,MIC,[7],0.0313 µg/mL
same,MIC,[8],2 µg/mL
same,MIC,[9],2 µg/mL
same,MIC,[10],0.0625 µg/mL
same,MIC,[11],0.25 µg/mL
same,MIC,[12],0.25 µg/mL
same,MIC,[13],0.25 µg/mL
same,MIC,[14],0.25 µg/mL
same,MIC,[15],1 µg/mL
same,MIC,[16],0.25 µg/mL
same,MIC,[17],0.25 µg/mL
same,MIC,[18],0.25 µg/mL
same,MIC,[19],0.5 µg/mL
same,MIC,[20],0.5 µg/mL
same,MIC,[21],0.25 µg/mL
same,MIC,[22],1 µg/mL
same,MIC,[23],0.125 µg/mL
same,MIC,[24],0.5 µg/mL
same,MIC,[25],2 µg/mL
same,MIC,[26],4 µg/mL
same,MIC,[27],0.25 µg/mL
same,MIC,[28],0.25 µg/mL
same,MIC,[29],0.25 µg/mL
same,MIC,[30],0.25 µg/mL
same,MIC,[31],0.125 µg/mL
same,MIC,[32],0.25 µg/mL
same,MIC,[33],0.25 µg/mL
same,MIC,[34],0.0625 µg/mL
same,MIC,[35],0.25 µg/mL
same,MIC,[36],0.5 µg/mL
same,MIC,[37],0.0625 µg/mL
same,MIC,[38],0.125 µg/mL
